ChEMBL document CHEMBL5143528, “Heat shock protein 90 (Hsp90)/Histone deacetylase (HDAC) dual inhibitors for the treatment of azoles-resistant Candida albicans” (Eur J Med Chem, 2022)
Active and inactive are the calls of the source. The rule behind the calls is not given here.

What was measured:
[1] = tested on: HEL; test: Cytotoxicity against human HEL cells assessed as inhibition of cell growth; format: functional, cell-based
[2] = tested on: Candida albicans; format: functional, 0304103; conditions: time 48 hrs
Description: Synergistic antifungal activity against azole-resistant Candida albicans 0304103 assessed as fractional inhibitory concentration in presence of fluconazole incubated for 48 hrs by CLSI based checkerboard microdilution assay

[3] = tested on: Candida albicans; format: functional, 0304103; conditions: time 48 hrs; remark: listed apart in the source
Description: Synergistic antifungal activity against azole-resistant Candida albicans 0304103 assessed as fractional inhibitory concentration index in presence of fluconazole incubated for 48 hrs by CLSI based checkerboard microdilution assay

[4] = tested on: Candida albicans; format: functional, 0304103; conditions: time 48 hrs; remark: listed apart in the source
Description: Synergistic antifungal activity against azole-resistant Candida albicans 0304103 assessed as fractional inhibitory concentration incubated for 48 hrs by CLSI based checkerboard microdilution assay

[5] = tested on: A549; test: Cytotoxicity against human A549 cells assessed as inhibition of cell growth; format: functional, cell-based
[6] = tested on: Candida albicans; test: microbe, parasite or virus in culture; format: functional; conditions: 0304103, time 48 hrs
Description: Antifungal activity against azole-resistant Candida albicans 0304103 assessed as fungal growth inhibition incubated for 48 hrs by CLSI based checkerboard microdilution assay

[7] = tested on: Candida albicans; test: Inhibition of biofilm formation in azole-resistant Candida albicans 0304103 assessed as downregulation of BCR1 expression at 64 ug/ml by RT-PCR analysis; format: functional, organism-based; conditions: dose 64.0 µg/ml
[8] = tested on: Candida albicans; test: Inhibition of biofilm formation in azole-resistant Candida albicans 0304103 assessed as downregulation of […] expression at 64 ug/ml by RT-PCR analysis; format: functional, organism-based; conditions: dose 64.0 µg/ml
[9] = tested on: Candida albicans; test: Antifungal activity against azole-resistant Candida albicans 0304103 infected in ICR mouse assessed as reduction in fungal burden in kidney by measuring neat and dense arrangement of cells at 10 mg/kg, ip administered once daily for 5 days in presence of fluconazole by Periodic acid-Schiff staining based analysis; format: functional, organism-based; conditions: time 5.0 day
[10] = biological target: Heat shock protein HSP90 (Homo sapiens, UniProt P07900+P08238); test: Inhibition of human HSP90; format: protein assay
[11] = Inhibition of fungal HDAC using Boc-Lys (acetyl)-AMC as substrate preincubated for 12 hrs followed by substrate addition and measured after 6 hrs by fluorescence-based analysis; parameters: species or system Fungi
[12] = tested on: Candida albicans; test: Downregulation of CDR1 expression in azole-resistant Candida albicans 0304103 at 8 ug/ml in presence of fluconazole by RT-PCR analysis; format: functional; conditions: dose 8.0 µg/ml
[13] = tested on: Candida albicans; test: Downregulation of ERG11 expression in azole-resistant Candida albicans 0304103 at 8 ug/ml in presence of fluconazole by RT-PCR analysis; format: functional; conditions: dose 8.0 µg/ml
[14] = tested on: Candida albicans; test: Inhibition of biofilm formation in azole-resistant Candida albicans 0304103 at 64 ug/ml incubated for 24 hrs by XTT reduction assay; format: functional, organism-based; conditions: dose 64.0 µg/ml
[15] = tested on: Candida albicans; test: Antifungal activity against azole-resistant Candida albicans 0304103 infected in ICR mouse assessed as assessed as reduction in fungal burden in kidney by measuring reduction in fungal invasion at 10 mg/kg, ip administered once daily for 5 days in presence of fluconazole by Periodic acid-Schiff staining based analysis; format: functional, organism-based; conditions: time 5.0 day
[16] = Inhibition of fungal HSP90 incubated for 6 hrs in presence of FITC-Geldanamycin by fluorescence polarization analysis; parameters: species or system Fungi
[17] = biological target: Histone deacetylase; format: protein assay, Homo sapiens
[18] = tested on: Candida albicans; test: Antifungal activity against azole-resistant Candida albicans 0304103 infected in ICR mouse assessed as reduction in fungal burden in kidney at 10 mg/kg, ip administered once daily for 5 days in presence of fluconazole; format: functional, organism-based; conditions: time 5.0 day
[19] = tested on: Candida albicans; test: Inhibition of biofilm formation in azole-resistant Candida albicans 0304103 assessed as downregulation of HWP1 expression at 64 ug/ml by RT-PCR analysis; format: functional, organism-based; conditions: dose 64.0 µg/ml
[20] = tested on: Candida albicans; test: Antifungal activity against azole-resistant Candida albicans 0304103 infected in ICR mouse assessed as reduction in fungal burden in kidney by measuring smooth kidney tissue at 10 mg/kg, ip administered once daily for 5 days in presence of fluconazole by Periodic acid-Schiff staining based analysis; format: functional, organism-based; conditions: time 5.0 day
[21] = tested on: Candida albicans; test: Inhibition of biofilm formation in azole-resistant Candida albicans 0304103 assessed as downregulation of EAP1 expression at 64 ug/ml by RT-PCR analysis; format: functional, organism-based; conditions: dose 64.0 µg/ml
[22] = Cytotoxicity against human HaCaT cells assessed as inhibition of cell growth; format: toxicity, cell-based
[23] = Toxicity in ICR mouse infected with azole-resistant Candida albicans 0304103 assessed as reduction in survival time at 10 mg/kg, ip administered once daily for 5 days; format: organism-based; conditions: in vivo, 120 h, time 5 day
[24] = tested on: Candida albicans; test: Upregulation of ERG11 expression in azole-resistant Candida albicans 0304103 at 8 ug/ml by RT-PCR analysis; format: functional; conditions: dose 8.0 µg/ml

CC(C)c1cc(-c2n[nH]c(=O)n2-c2ccc(C(=O)NCCCCCCC(=O)NO)cc2)c(O)cc1O
IC50 [1]: 4.6 µM | FIC [2]: 1 µg/mL | fractional inhibitory concentration index (FICI) [3]: 0.266 | FIC [4]: 16 µg/mL | IC50 [5]: 4.6 µM | MIC80 [6]: > 64 µg/mL

CC(C)c1cc(-c2n[nH]c(=O)n2-c2ccc(C(=O)NCCCC(=O)NO)cc2)c(O)cc1O
IC50 [1]: 4.6 µM | FIC [2]: 1 µg/mL | fractional inhibitory concentration index (FICI) [3]: 0.266 | FIC [4]: 16 µg/mL | IC50 [5]: 4.6 µM | MIC80 [6]: > 64 µg/mL

CC(C)c1cc(-c2n[nH]c(=O)n2-c2cccc(NC(=O)CCCCCCC(=O)NO)c2)c(O)cc1O
IC50 [1]: 1.6 µM | FIC [2]: 2 µg/mL | fractional inhibitory concentration index (FICI) [3]: 0.156 | FIC [4]: 8 µg/mL | IC50 [5]: 1.6 µM | MIC80 [6]: > 64 µg/mL

CC(C)c1cc(-c2n[nH]c(=O)n2-c2cccc(C(=O)NCCCCCC(=O)NO)c2)c(O)cc1O
IC50 [1]: 4.6 µM | FIC [2]: 64 µg/mL | fractional inhibitory concentration index (FICI) [3]: 1.25 | FIC [4]: 16 µg/mL | IC50 [5]: 4.6 µM | MIC80 [6]: > 64 µg/mL

CC(C)c1cc(-c2n[nH]c(=O)n2-c2ccc(C(=O)NCCCCCCCC(=O)NO)cc2)c(O)cc1O
IC50 [1]: 4.6 µM | inhibition [7]: Active | inhibition [8]: Active | Activity [9]: Active | IC50 [10]: 19.52 µM | IC50 [11]: 910 nM | FIC [2]: 1 µg/mL | Activity [12]: Active | Activity [13]: Active | inhibition [14]: Active | Activity [15]: Active | fractional inhibitory concentration index (FICI) [3]: 0.266 | FIC [4]: 16 µg/mL | IC50 [16]: 830 nM | IC50 [17]: 3 µM | Activity [18]: Active | inhibition [19]: Active | Activity [20]: Active | IC50 [5]: 4.6 µM | MIC80 [6]: > 64 µg/mL | inhibition [21]: Active | IC50 [22]: > 6.13 µM

CC(C)c1cc(-c2n[nH]c(=O)n2-c2cccc(NC(=O)CCCCC(=O)NO)c2)c(O)cc1O
IC50 [1]: 1.6 µM | FIC [2]: 32 µg/mL | fractional inhibitory concentration index (FICI) [3]: 1.5 | FIC [4]: 64 µg/mL | IC50 [5]: 1.6 µM | MIC80 [6]: > 64 µg/mL

CC(C)c1cc(-c2n[nH]c(=O)n2-c2ccc(NC(=O)CCCCCC(=O)NO)cc2)c(O)cc1O
IC50 [1]: 0.024 µM | FIC [2]: 8 µg/mL | fractional inhibitory concentration index (FICI) [3]: 0.25 | FIC [4]: 8 µg/mL | IC50 [5]: 0.024 µM | MIC80 [6]: > 64 µg/mL

CC(C)c1cc(-c2n[nH]c(=O)n2-c2ccc3c(ccn3C)c2)c(O)cc1O [GANETESPIB]
FIC [2]: 1 µg/mL | Activity [23]: Toxic | FIC [4]: 0.5 µg/mL | IC50 [16]: 660 nM | MIC80 [6]: > 64 µg/mL | IC50 [22]: < 0.015 µM

CC(C)c1cc(-c2n[nH]c(=O)n2-c2ccc(NC(=O)CCCCC(=O)NO)cc2)c(O)cc1O
IC50 [1]: 0.024 µM | FIC [2]: 16 µg/mL | fractional inhibitory concentration index (FICI) [3]: 0.5 | FIC [4]: 16 µg/mL | IC50 [5]: 0.024 µM | MIC80 [6]: > 64 µg/mL

CC(C)c1cc(-c2n[nH]c(=O)n2-c2ccc(NC(=O)CCCCCCC(=O)NO)cc2)c(O)cc1O
IC50 [1]: 0.024 µM | FIC [2]: 4 µg/mL | fractional inhibitory concentration index (FICI) [3]: 0.188 | FIC [4]: 8 µg/mL | IC50 [5]: 0.024 µM | MIC80 [6]: > 64 µg/mL

CC(C)c1cc(-c2n[nH]c(=O)n2-c2ccc(C(=O)NCCCCCC(=O)NO)cc2)c(O)cc1O
IC50 [1]: 4.6 µM | FIC [2]: >64 µg/mL | fractional inhibitory concentration index (FICI) [3]: 2 | FIC [4]: >64 µg/mL | IC50 [5]: 4.6 µM | MIC80 [6]: > 64 µg/mL

CC(C)c1cc(-c2n[nH]c(=O)n2-c2cccc(C(=O)NCCCC(=O)NO)c2)c(O)cc1O
IC50 [1]: 4.6 µM | FIC [2]: 64 µg/mL | fractional inhibitory concentration index (FICI) [3]: 2 | FIC [4]: 64 µg/mL | IC50 [5]: 4.6 µM | MIC80 [6]: > 64 µg/mL

CC(C)c1cc(-c2n[nH]c(=O)n2-c2cccc(C(=O)NCCCCC(=O)NO)c2)c(O)cc1O
IC50 [1]: 4.6 µM | FIC [2]: 64 µg/mL | fractional inhibitory concentration index (FICI) [3]: 1.25 | FIC [4]: 16 µg/mL | IC50 [5]: 4.6 µM | MIC80 [6]: > 64 µg/mL

CC(C)c1cc(-c2n[nH]c(=O)n2-c2cccc(NC(=O)CCCCCC(=O)NO)c2)c(O)cc1O
IC50 [1]: 1.6 µM | FIC [2]: 32 µg/mL | fractional inhibitory concentration index (FICI) [3]: 1.5 | FIC [4]: 64 µg/mL | IC50 [5]: 1.6 µM | MIC80 [6]: > 64 µg/mL

O=C(CCCCCCC(=O)Nc1ccccc1)NO [VORINOSTAT]
IC50 [11]: 3600 nM | Activity [23]: Toxic | IC50 [22]: 1.85 µM

CC(C)c1cc(-c2n[nH]c(=O)n2-c2cccc(C(=O)NCCCCCCC(=O)NO)c2)c(O)cc1O
IC50 [1]: 4.6 µM | inhibition [7]: Active | inhibition [8]: Active | FIC [2]: 1 µg/mL | inhibition [14]: Active | fractional inhibitory concentration index (FICI) [3]: 0.141 | FIC [4]: 8 µg/mL | inhibition [19]: Active | IC50 [5]: 4.6 µM | MIC80 [6]: > 64 µg/mL | inhibition [21]: Active | IC50 [22]: > 6.13 µM

CNC(=O)CCCCCCCNC(=O)c1cccc(-n2c(-c3cc(C(C)C)c(O)cc3O)n[nH]c2=O)c1
IC50 [1]: 4.6 µM | FIC [2]: 2 µg/mL | fractional inhibitory concentration index (FICI) [3]: 0.156 | FIC [4]: 8 µg/mL | IC50 [5]: 4.6 µM | MIC80 [6]: > 64 µg/mL | IC50 [22]: > 6.13 µM

CC(C)c1cc(-c2n[nH]c(=O)n2-c2ccc(NC(=O)CCCC(=O)NO)cc2)c(O)cc1O
IC50 [1]: 0.024 µM | FIC [2]: 1 µg/mL | fractional inhibitory concentration index (FICI) [3]: 0.078 | FIC [4]: 4 µg/mL | IC50 [5]: 0.024 µM | MIC80 [6]: > 64 µg/mL

OC(Cn1cncn1)(Cn1cncn1)c1ccc(F)cc1F
Activity [24]: Active

CC(C)c1cc(-c2n[nH]c(=O)n2-c2ccc(C(=O)NCCCCC(=O)NO)cc2)c(O)cc1O
IC50 [1]: 4.6 µM | FIC [2]: 8 µg/mL | fractional inhibitory concentration index (FICI) [3]: 0.188 | FIC [4]: 4 µg/mL | IC50 [5]: 4.6 µM | MIC80 [6]: > 64 µg/mL
